Measured values reported in patent US20260226019A1, “NEGATIVE ALLOSTERIC MODULATORS OF METABOTROPIC GLUTAMATE RECEPTOR 2” (Vanderbilt University, priority 2023, published 2026).

What was measured:
[1] = biological target: T1, human mGlu3 (Homo sapiens, UniProt Q14832); experiment: mGlu GIRK cell-based thallium flux assay, human mGlu3; details: HEK-293 cells co-expressing human mGlu3 and GIRK, EC80 glutamate, single experiment
T1 construct: expressed in transfected cells; host or cells: HEK-293 stably co-expressing GIRK channels
T1 sequence (Q14832 23-879): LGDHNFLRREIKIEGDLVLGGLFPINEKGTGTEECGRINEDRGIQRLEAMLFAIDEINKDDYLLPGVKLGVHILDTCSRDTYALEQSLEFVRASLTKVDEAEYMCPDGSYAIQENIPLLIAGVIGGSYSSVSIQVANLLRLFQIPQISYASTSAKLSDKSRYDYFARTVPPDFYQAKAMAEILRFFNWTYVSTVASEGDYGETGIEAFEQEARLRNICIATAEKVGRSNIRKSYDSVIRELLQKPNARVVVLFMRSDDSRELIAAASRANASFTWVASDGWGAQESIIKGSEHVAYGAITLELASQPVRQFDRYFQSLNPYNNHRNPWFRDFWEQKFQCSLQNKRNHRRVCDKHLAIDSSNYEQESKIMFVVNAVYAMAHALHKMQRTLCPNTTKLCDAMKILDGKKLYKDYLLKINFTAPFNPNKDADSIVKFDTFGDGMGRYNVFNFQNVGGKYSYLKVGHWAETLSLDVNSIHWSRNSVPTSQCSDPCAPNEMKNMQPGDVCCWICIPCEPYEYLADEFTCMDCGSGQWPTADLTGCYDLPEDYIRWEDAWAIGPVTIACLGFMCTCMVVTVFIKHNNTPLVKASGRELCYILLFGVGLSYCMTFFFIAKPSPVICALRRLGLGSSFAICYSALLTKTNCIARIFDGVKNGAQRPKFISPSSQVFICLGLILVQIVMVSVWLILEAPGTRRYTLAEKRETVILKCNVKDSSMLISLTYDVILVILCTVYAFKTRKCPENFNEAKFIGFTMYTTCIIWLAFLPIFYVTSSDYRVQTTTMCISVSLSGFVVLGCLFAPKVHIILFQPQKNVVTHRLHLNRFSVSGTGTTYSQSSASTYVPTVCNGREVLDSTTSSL
Protocol: (§1) Human embryonic kidney (HEK-293) cell lines stably co-expressing human or rat mGlu2 and G protein-coupled inwardly rectifying potassium (GIRK) channels, or human mGlu3 and GIRK, were used for in vitro evaluation of compound activity in thallium flux assay using a fluorescent thallium indicator dye.
(§2) The day before the assay, GIRK cells co-expressing human mGlu3, human or rat mGlu2, as described above, were plated in black-walled, clear-bottomed, amine-coated 384-well plates at a density of 15,000 cells/[…]/well in the assay medium (glutamine-depleted basal DMEM supplemented with 10% dialyzed FBS, 20 mM HEPES, 1 mM sodium pyruvate). Cells were incubated at 37° C. in the presence of 5% CO2. The next day, assay buffer (Hanks balanced salt solution, 20 mM HEPES, 4.16 mM sodium bicarbonate, pH 7.2) was prepared to dilute compounds and Thallos AM fluorescent dye solution. The 2× Thallos dye solution (final concentration 0.34 μM to the cells) was prepared by mixing the dye stock (2.97 mM in DMSO) to 1:1 with 10% pluronic acid before adding to the assay buffer. Cells were washed with assay buffer using a microplate washer to remove the medium, resulting in 20 μL of buffer remaining in each well. […] During the cell dye loading incubation period, a 10-point concentration serial dilution of compound was created from a 10 mM DMSO compound stock by performing a 1:3 serial dilution in DMSO using the Bravo liquid handler. The 2× compound plate was generated by transferring 0.24 μL of the diluted compound in each well to a daughter plate using an Echo acoustic liquid handler. This is further diluted in 40 μL assay buffer, resulting in a range from […] to 1.5 nM final concentration in the assay. The agonist plate (5×) was prepared to include EC80 glutamate concentration (a concentration to elicit 80% of a maximally effective glutamate concentration) in thallium buffer (125 mM sodium bicarbonate, 1 mM magnesium sulfate, 1.8 mM calcium sulfate, 5 mM glucose, 10 mM HEPES, pH 7.2, 12.5 mM thallium sulfate).
(§3) After dye-loading, cell plates were washed with assay buffer to remove excess extracellular dye using a microplate washer, resulting in 20 μL of buffer remaining in each well. After a ten-minute equilibration period, cell, compound and agonist plates were loaded into a Hamamatsu μCell kinetic imaging plate reader equipped with liquid handler to monitor fluorescence changes at 480 nm excitation and 540 nm emission settings. Briefly, after collection of baseline fluorescence, 20 μL of compound was added and incubated for two minutes and twenty seconds. This is immediately followed by adding 10 μL of glutamate-thallium buffer to the wells containing compound. The fluorescent signal was monitored an additional 2.5 minutes after the glutamate addition. Multiple reference wells containing no compound received either no glutamate (for a baseline reference), EC80 glutamate, or ECmax glutamate (for normalization to maximum response). […] Each compound concentration series occurred one time in each plate, and replicates from two or three plates were used in each experimental run. Thallium solutions were handled and disposed of according to guidelines from the Vanderbilt University Chemical Safety department.
(§4) Data were normalized using a static ratio function (F/F0) by dividing every fluorescent measurement by the initial fluorescent value for the corresponding well. The increase in signal resulting from the glutamate/thallium addition of the second add was measured by determining the slope from 3 seconds to 13 seconds after the addition. The average of all baseline slopes (no compound, no glutamate) was determined and this value was subtracted from all other slope values. The average of all ECmax slopes was determined and this value was used to normalize the baseline-corrected slopes to a percent max value (% Emax).

[2] = biological target: T2, human mGlu2 (Homo sapiens, UniProt Q14416); experiment: mGlu GIRK cell-based thallium flux assay, human mGlu2; details: HEK-293 cells co-expressing human mGlu2 and GIRK, EC80 glutamate, single experiment
T2 construct: expressed in transfected cells; host or cells: HEK-293 stably co-expressing GIRK channels
T2 sequence (Q14416 19-872): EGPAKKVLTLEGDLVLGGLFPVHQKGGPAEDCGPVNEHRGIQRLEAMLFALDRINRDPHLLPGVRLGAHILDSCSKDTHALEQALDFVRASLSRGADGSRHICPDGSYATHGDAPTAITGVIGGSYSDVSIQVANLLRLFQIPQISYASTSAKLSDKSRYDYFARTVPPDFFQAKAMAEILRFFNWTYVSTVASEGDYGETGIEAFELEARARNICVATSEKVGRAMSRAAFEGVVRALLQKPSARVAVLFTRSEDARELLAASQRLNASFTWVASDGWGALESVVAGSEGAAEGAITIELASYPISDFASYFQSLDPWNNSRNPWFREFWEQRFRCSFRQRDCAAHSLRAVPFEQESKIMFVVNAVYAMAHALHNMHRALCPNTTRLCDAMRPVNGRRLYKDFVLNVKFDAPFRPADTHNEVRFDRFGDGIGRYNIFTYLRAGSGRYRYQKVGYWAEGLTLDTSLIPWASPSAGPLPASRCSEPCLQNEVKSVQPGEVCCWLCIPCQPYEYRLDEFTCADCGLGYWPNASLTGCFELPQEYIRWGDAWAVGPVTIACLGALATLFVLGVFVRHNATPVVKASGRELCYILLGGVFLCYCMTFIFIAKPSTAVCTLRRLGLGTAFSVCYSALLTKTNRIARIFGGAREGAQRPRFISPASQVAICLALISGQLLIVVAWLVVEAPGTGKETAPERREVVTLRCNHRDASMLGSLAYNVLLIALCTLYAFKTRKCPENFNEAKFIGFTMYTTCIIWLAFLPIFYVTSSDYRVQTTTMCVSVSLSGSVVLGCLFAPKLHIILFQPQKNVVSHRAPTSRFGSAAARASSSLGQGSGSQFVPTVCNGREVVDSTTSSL
Protocol: as §1, §2, §3, §4

Human mGlu3 GIRK IC50 (nM) [1]	IC50 [2] [µM]	IC50 [1] [µM]	Compound	Human mGlu2 GIRK IC50 (nM) [2]
Inactive	2.97	–	O=C1NCc2c1cc(-c1ccc(F)cc1F)cc2N1CCS(=O)(=O)CC1 [Compound A3, 6-(2,4-difluorophenyl)-4-(1,1-dioxidothiomorpholino)isoindolin-1-one]	–
Inactive	0.185	–	CC(=O)Nc1ccc(-c2cc(-c3ccc(F)cc3F)cc3c2CNC3=O)cn1 [Compound 34, N-(5-(6-(2,4-difluorophenyl)-1-oxoisoindolin-4-yl)pyridin-2-yl)acetamide]	–
Inactive	0.204	–	Cn1nc(C(F)(F)F)cc1-c1cc(-c2ccc(F)cc2F)cc2c1CNC2=O [Compound 78, 6-(2,4-difluorophenyl)-4-(1-methyl-3-(trifluoromethyl)-1H-pyrazol-5-yl)isoindolin-1-one]	–
–	0.49	9.87	COC1CCCN(c2cc(-c3ccc(F)cc3F)cc3c2CNC3=O)C1 (centres unmarked) [Compound A18, 6-(2,4-difluorophenyl)-4-(3-methoxypiperidin-1-yl)isoindolin-1-one]	–
Inactive	0.218	–	O=C1NCc2c1cc(-c1ccc(F)cc1F)cc2N1CCn2nccc21 [Compound A2, 6-(2,4-difluorophenyl)-4-(2,3-dihydro-1H-imidazo[1,2-b]pyrazol-1-yl)isoindolin-1-one]	–
Inactive	0.066	–	O=C1NCc2c1cc(-c1ccc(F)cc1F)cc2-c1ccc(=O)n(C(F)F)c1 [Compound 40, 4-(1-(difluoromethyl)-6-oxo-1,6-dihydropyridin-3-yl)-6-(2,4-difluorophenyl)isoindolin-1-one]	–
–	0.555	3.96	CSc1ncc(-c2cc(-c3ccc(F)cc3F)cc3c2CNC3=O)cn1 [Compound 39, 6-(2,4-difluorophenyl)-4-(2-(methylthio)pyrimidin-5-yl)isoindolin-1-one]	–
–	0.18	4.62	O=C1NCc2c(CN3CCSCC3)cc(-c3ccc(F)cc3F)cc21 [Compound B1, 6-(2,4-difluorophenyl)-4-(thiomorpholinomethyl)isoindolin-1-one]	–
Inactive	0.298	–	O=C1NCc2c1cc(-c1ccc(F)cc1F)cc2-c1ccc[nH]c1=O [Compound 64, 6-(2,4-difluorophenyl)-4-(2-oxo-1,2-dihydropyridin-3-yl)isoindolin-1-one]	–
–	0.099	> 10	Cc1ccc(-c2cc(-c3ccc(F)cc3F)cc3c2CNC3=O)cn1 [Compound 5, 6-(2,4-difluorophenyl)-4-(6-methylpyridin-3-yl)isoindolin-1-one]	–
–	0.865	> 10	CC(C)Oc1ncccc1-c1cc(-c2ccc(F)cc2F)cc2c1CNC2=O [Compound 75, 6-(2,4-difluorophenyl)-4-(2-isopropoxypyridin-3-yl)isoindolin-1-one]	–
–	–	> 10	CC(C)Oc1cc(-c2cc3c(c(-c4cnsc4)c2)CNC3=O)ccc1C#N [Compound 62, 2-isopropoxy-4-(7-(isothiazol-4-yl)-3-oxoisoindolin-5-yl)benzonitrile]	Inactive
Inactive	0.291	–	O=C1NCc2c1cc(-c1ccc(F)cc1F)cc2-c1cnn(C2CC2)c1 [Compound 18, 4-(1-cyclopropyl-1H-pyrazol-4-yl)-6-(2,4-difluorophenyl)isoindolin-1-one]	–
–	1.49	> 10	CN1CCCC(c2cc(-c3ccc(F)cc3F)cc3c2CNC3=O)C1 (centres unmarked) [Compound B3, 6-(2,4-difluorophenyl)-4-(1-methylpiperidin-3-yl)isoindolin-1-one]	–
Inactive	2.09	–	CC1(C)CN(c2cc(-c3ccc(F)cc3F)cc3c2CNC3=O)CC(C)(C)O1 [Compound A6, 6-(2,4-difluorophenyl)-4-(2,2,6,6-tetramethylmorpholino)isoindolin-1-one]	–
–	1.23	> 10	O=C1NCc2c1cc(-c1ccc(F)cc1F)cc2-c1ccc(C2CC2)nc1 [Compound 36, 4-(6-cyclopropylpyridin-3-yl)-6-(2,4-difluorophenyl)isoindolin-1-one]	–
Inactive	0.066	–	O=C1NCc2c1cc(-c1ccc(F)cc1F)cc2-c1cnco1 [Compound 6, 6-(2,4-difluorophenyl)-4-(oxazol-5-yl)isoindolin-1-one]	–
Inactive	0.163	–	Cc1cc(-c2cc(-c3ccc(F)cc3F)cc3c2CNC3=O)cnn1 [Compound 13, 6-(2,4-difluorophenyl)-4-(6-methylpyridazin-4-yl)isoindolin-1-one]	–
Inactive	0.65	–	CC(C)(O)C1CCN(c2cc(-c3ccc(F)cc3F)cc3c2CNC3=O)C1 (centres unmarked) [Compound A8, 6-(2,4-difluorophenyl)-4-(3-(2-hydroxypropan-2-yl)pyrrolidin-1-yl)isoindolin-1-one]	–
Inactive	0.203	–	O=C1NCc2c1cc(-c1ccc(F)cc1F)cc2-c1cnn(C2CCOC2)c1 (centres unmarked) [Compound 63, 6-(2,4-difluorophenyl)-4-(1-(tetrahydrofuran-3-yl)-1H-pyrazol-4-yl)isoindolin-1-one]	–
–	3.95	> 10	CC1(C)CCN(c2cc(-c3ccc(F)cc3F)cc3c2CNC3=O)CC1 [Compound A16, 6-(2,4-difluorophenyl)-4-(4,4-dimethylpiperidin-1-yl)isoindolin-1-one]	–
–	> 10	–	O=Cc1ccc(-c2cc3c(c(-c4cnsc4)c2)CNC3=O)c(F)c1F [Compound 58, 2,3-difluoro-4-(7-(isothiazol-4-yl)-3-oxoisoindolin-5-yl)benzaldehyde]	–
–	> 10	–	O=C1NCc2c1cc(-c1ccc(OC(F)F)cc1F)cc2-c1cnsc1 [Compound 46, 6-(4-(difluoromethoxy)-2-fluorophenyl)-4-(isothiazol-4-yl)isoindolin-1-one]	–
–	3.17	–	O=C1NCc2c1cc(-c1ccc(F)cc1F)cc2-c1cnn(C2CCCC2)c1 [Compound 16, 4-(1-cyclopentyl-1H-pyrazol-4-yl)-6-(2,4-difluorophenyl)isoindolin-1-one]	–
–	0.323	–	CCn1nccc1-c1cc(C2=CCOCC2)cc2c1CNC2=O [Compound 95, 6-(3,6-dihydro-2H-pyran-4-yl)-4-(1-ethyl-1H-pyrazol-5-yl)isoindolin-1-one]	–
–	0.488	–	Cc1cc2n(n1)CCN2c1cc(-c2ccc(F)cc2F)cc2c1CNC2=O [Compound A23, 6-(2,4-difluorophenyl)-4-(6-methyl-2,3-dihydro-1H-imidazo[1,2-b]pyrazol-1-yl)isoindolin-1-one]	–
–	> 10	–	Cc1cc(-c2cc3c(c(-c4cnsc4)c2)CNC3=O)c(F)cc1F [Compound 50, 6-(2,4-difluoro-5-methylphenyl)-4-(isothiazol-4-yl)isoindolin-1-one]	–
–	–	> 10	Cc1cc(-c2cc(-c3ccc(F)cc3F)cc3c2CNC3=O)n(C)n1 [Compound 79, 6-(2,4-difluorophenyl)-4-(1,3-dimethyl-1H-pyrazol-5-yl)isoindolin-1-one]	–
–	–	–	N#Cc1c(F)cc(-c2cc3c(c(-c4cnsc4)c2)CNC3=O)cc1F [Compound 57, 2,6-difluoro-4-(7-(isothiazol-4-yl)-3-oxoisoindolin-5-yl)benzonitrile]	Inactive
